pIC50: −log10 of the molar value. Read-outs that look alike come from different tables or passages of the source.
Molecular target: recombinant GST-LRRK2 (wild-type) (Homo sapiens (Human), UniProt Q5S007)
Assay: LRRK2 TR-FRET peptide assay (in vitro kinase activity), wild-type
Type: biochemical
Protocol: Compounds as described herein (compounds of Formula I, e.g., compounds of the above Examples) are tested for their in vitro kinase activities using various LRRK2 (including LRRK2 G2019S mutant) assays. […] Serially diluted compounds (1% DMSO as co-solvent) were pre-incubated with recombinant GST-LRRK2 (wild-type, or G2019S mutant, Invitrogen) for 15 minutes at room temperature in 384-well Corning black plates. […] The inhibition of each well was calculated using the control and background readings for that plate. IC50 values were determined from dose-response curves using eight concentrations from the serial dilution of the test compounds.

[1] = 100 μM ATP, 100 nM biotin-LRRKtide substrate, 10 nM kinase, 60 minutes at room temperature

Sequence of recombinant GST-LRRK2 (wild-type) (Q5S007 whole entry): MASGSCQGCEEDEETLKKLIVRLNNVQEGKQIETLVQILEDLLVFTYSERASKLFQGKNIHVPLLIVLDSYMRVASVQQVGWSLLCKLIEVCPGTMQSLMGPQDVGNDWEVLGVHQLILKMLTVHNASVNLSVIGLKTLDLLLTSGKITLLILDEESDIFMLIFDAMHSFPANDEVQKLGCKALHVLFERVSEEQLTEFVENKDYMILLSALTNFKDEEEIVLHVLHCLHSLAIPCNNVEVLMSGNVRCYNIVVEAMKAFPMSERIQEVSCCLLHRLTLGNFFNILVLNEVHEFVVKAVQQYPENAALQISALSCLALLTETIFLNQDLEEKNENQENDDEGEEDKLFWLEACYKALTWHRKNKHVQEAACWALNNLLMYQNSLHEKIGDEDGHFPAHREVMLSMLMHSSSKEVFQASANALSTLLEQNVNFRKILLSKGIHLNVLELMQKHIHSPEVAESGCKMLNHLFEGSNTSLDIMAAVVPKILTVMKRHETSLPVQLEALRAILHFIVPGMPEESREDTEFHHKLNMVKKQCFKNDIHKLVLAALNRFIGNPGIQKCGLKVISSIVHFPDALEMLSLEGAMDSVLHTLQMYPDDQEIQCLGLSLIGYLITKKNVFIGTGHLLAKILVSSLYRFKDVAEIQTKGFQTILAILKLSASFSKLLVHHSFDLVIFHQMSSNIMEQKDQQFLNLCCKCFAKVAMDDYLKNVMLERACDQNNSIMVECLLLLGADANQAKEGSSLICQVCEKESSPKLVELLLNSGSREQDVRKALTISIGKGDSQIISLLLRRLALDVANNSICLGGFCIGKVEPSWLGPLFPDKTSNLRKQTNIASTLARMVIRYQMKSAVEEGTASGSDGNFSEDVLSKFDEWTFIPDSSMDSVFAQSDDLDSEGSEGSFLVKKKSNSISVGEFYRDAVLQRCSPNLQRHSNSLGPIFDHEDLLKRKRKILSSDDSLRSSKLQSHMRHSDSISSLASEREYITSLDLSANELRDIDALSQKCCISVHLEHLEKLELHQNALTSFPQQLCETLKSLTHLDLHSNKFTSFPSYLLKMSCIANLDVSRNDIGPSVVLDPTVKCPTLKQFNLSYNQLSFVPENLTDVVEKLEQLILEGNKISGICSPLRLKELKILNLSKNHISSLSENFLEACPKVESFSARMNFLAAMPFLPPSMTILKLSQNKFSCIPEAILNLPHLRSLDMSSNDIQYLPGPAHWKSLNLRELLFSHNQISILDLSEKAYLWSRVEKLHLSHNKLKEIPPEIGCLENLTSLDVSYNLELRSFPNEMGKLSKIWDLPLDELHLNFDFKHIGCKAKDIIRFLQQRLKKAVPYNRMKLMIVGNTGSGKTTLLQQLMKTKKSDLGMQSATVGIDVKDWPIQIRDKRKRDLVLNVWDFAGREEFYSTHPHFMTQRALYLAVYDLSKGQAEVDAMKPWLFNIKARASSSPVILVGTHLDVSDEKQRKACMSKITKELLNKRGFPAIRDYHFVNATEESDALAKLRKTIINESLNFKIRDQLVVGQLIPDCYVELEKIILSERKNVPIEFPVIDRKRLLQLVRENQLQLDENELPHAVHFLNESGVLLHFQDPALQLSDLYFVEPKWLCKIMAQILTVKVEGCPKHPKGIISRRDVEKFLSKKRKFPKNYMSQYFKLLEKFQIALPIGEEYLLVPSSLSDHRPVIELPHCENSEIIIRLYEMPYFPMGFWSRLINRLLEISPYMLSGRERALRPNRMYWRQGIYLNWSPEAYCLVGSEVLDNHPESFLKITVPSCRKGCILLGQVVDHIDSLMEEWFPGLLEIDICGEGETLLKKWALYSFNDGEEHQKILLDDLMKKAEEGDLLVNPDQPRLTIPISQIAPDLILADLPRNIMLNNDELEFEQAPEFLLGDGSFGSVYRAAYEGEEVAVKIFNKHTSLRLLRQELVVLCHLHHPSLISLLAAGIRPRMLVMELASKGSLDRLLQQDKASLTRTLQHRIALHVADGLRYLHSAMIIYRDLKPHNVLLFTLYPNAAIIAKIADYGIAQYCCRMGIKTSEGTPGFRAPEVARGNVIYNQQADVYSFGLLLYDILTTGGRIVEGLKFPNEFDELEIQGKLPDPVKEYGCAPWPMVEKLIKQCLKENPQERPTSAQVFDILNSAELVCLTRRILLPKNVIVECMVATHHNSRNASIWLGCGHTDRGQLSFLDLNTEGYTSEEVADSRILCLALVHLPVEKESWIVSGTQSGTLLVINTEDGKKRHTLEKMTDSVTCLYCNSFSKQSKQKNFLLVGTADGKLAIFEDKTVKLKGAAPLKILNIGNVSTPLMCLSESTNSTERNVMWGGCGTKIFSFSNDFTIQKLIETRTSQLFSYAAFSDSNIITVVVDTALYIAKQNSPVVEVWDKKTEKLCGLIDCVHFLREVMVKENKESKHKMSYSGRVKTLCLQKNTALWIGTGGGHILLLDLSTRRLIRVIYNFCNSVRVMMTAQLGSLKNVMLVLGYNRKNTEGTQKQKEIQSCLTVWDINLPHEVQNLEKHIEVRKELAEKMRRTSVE

| SMILES | pIC50 [1] | pIC50 |
| --- | --- | --- |
| CNc1c(C(N)=O)nnc2cc(-c3ccc(S(C)(=O)=O)cc3)ccc12 [Compound 2-94, 4-(methylamino)-7-(4-(methylsulfonyl)phenyl)cinnoline-3-carboxamide] | 6.92 | – |
| C=Cc1ccc2c(NC(C)C)c(C(N)=O)nnc2c1 [Compound 2-95, 4-(isopropylamino)-7-vinylcinnoline-3-carboxamide] | 6.92 | – |
| COc1ccccc1-c1ccc2c(NC(C)C)c(C(N)=O)nnc2c1 [Compound 2-96, 4-(isopropylamino)-7-(2-methoxyphenyl)cinnoline-3-carboxamide] | 6.46 | – |
| COc1cccc(-c2ccc3c(NC(C)C)c(C(N)=O)nnc3c2)c1 [Compound 2-97, 4-(isopropylamino)-7-(3-methoxyphenyl)cinnoline-3-carboxamide] | 7.34 | – |
| COc1ccc(F)cc1-c1ccc2c(NC(C)C)c(C(N)=O)nnc2c1 [Compound 2-98, 7-(5-fluoro-2-methoxyphenyl)-4-(isopropylamino)cinnoline-3-carboxamide] | 6.23 | – |
| C=C(C)c1ccc2c(NC(C)C)c(C(N)=O)nnc2c1 [Compound 2-99, 4-(isopropylamino)-7-(prop-1-en-2-yl)cinnoline-3-carboxamide] | 7.12 | – |
| C[C@@H](Nc1c(C(N)=O)nnc2cc(-c3ccncc3)ccc12)C1CC1 [Compound 2-100, (R)-4-(1-cyclopropylethylamino)-7-(pyridin-4-yl)cinnoline-3-carboxamide] | – | > 8.22 |
| C[C@@H](Nc1c(C(N)=O)nnc2cc(-c3cnn(C)c3)ccc12)C1CC1 [Compound 2-101, (R)-4-(1-cyclopropylethylamino)-7-(1-methyl-1H-pyrazol-4-yl)cinnoline-3-carboxamide] | 9.00 | – |
| C[C@@H](Nc1c(C(N)=O)nnc2cc(-c3cccc(C(=O)N(C)C)c3)ccc12)C1CC1 [Compound 2-102, (R)-4-(1-cyclopropylethylamino)-7-(3-(dimethylcarbamoyl)phenyl)cinnoline-3-carboxamide] | > 8.22 | – |
| COCc1ccccc1-c1ccc2c(N[C@H](C)C3CC3)c(C(N)=O)nnc2c1 [Compound 2-104, (R)-4-(1-cyclopropylethylamino)-7-(2-(methoxymethyl)phenyl)cinnoline-3-carboxamide] | 6.48 | – |
| C[C@@H](Nc1c(C(N)=O)nnc2cc(-c3cncc4ccccc34)ccc12)C1CC1 [Compound 2-105, (R)-4-(1-cyclopropylethylamino)-7-(isoquinolin-4-yl)cinnoline-3-carboxamide] | 6.42 | – |
| C[C@@H](Nc1c(C(N)=O)nnc2cc(-c3ccc4c(c3)CC(=O)N4)ccc12)C1CC1 [Compound 2-106, (R)-4-(1-cyclopropylethylamino)-7-(2-oxoindolin-5-yl)cinnoline-3-carboxamide] | 7.96 | – |
| COc1ccc(C(=O)N(C)C)cc1-c1ccc2c(N[C@H](C)C3CC3)c(C(N)=O)nnc2c1 [Compound 2-107, (R)-4-(1-cyclopropylethylamino)-7-(5-(dimethylcarbamoyl)-2-methoxyphenyl)cinnoline-3-carboxamide] | 7.32 | – |
| C[C@@H](Nc1c(C(N)=O)nnc2cc(-c3ccccc3OC(F)(F)F)ccc12)C1CC1 [Compound 2-108, (R)-4-(1-cyclopropylethylamino)-7-(2-(trifluoromethoxy)phenyl)cinnoline-3-carboxamide] | 5.37 | – |
| COc1ccc(Br)cc1-c1ccc2c(N[C@H](C)C3CC3)c(C(N)=O)nnc2c1 [Compound 2-109, (R)-7-(5-bromo-2-methoxyphenyl)-4-(1-cyclopropylethylamino)cinnoline-3-carboxamide] | 6.15 | – |
| C[C@@H](Nc1c(C(N)=O)nnc2cc(-c3ccccc3)ccc12)C1CC1 [Compound 2-110, (R)-4-(1-cyclopropylethylamino)-7-phenylcinnoline-3-carboxamide] | 8.00 | – |
| C[C@@H](Nc1c(C(N)=O)nnc2cc(-c3cccc(S(C)(=O)=O)c3)ccc12)C1CC1 [Compound 2-111, (R)-4-(1-cyclopropylethylamino)-7-(3-(methylsulfonyl)phenyl)cinnoline-3-carboxamide] | 9.00 | – |
| C[C@@H](Nc1c(C(N)=O)nnc2cc(-c3ccc(=O)n(C)c3)ccc12)C1CC1 [Compound 2-112, (R)-4-(1-cyclopropylethylamino)-7-(1-methyl-6-oxo-1,6-dihydropyridin-3-yl)cinnoline-3-carboxamide] | > 8.22 | – |
| C[C@@H](Nc1c(C(N)=O)nnc2cc(-c3cccc(OCC4CC4)c3)ccc12)C1CC1 [Compound 2-113, (R)-4-(1-cyclopropylethylamino)-7-(3-(cyclopropylmethoxy)phenyl)cinnoline-3-carboxamide] | 7.29 | – |
| C[C@@H](Nc1c(C(N)=O)nnc2cc(-c3ccc(C(=O)N(C)C)cc3)ccc12)C1CC1 [Compound 2-114, (R)-4-(1-cyclopropylethylamino)-7-(4-(dimethylcarbamoyl)phenyl)cinnoline-3-carboxamide] | 9.30 | – |

| SMILES | pIC50 [1] | pIC50 |
| --- | --- | --- |
| COc1ccc(S(C)(=O)=O)cc1-c1ccc2c(N[C@H](C)C3CC3)c(C(N)=O)nnc2c1 [Compound 2-115, (R)-4-(1-cyclopropylethylamino)-7-(2-methoxy-5-(methylsulfonyl)phenyl)cinnoline-3-carboxamide] | 7.30 | – |
| C[C@@H](Nc1c(C(N)=O)nnc2cc(-c3ccc(N4CCOCC4=O)cc3)ccc12)C1CC1 [Compound 2-116, (R)-4-(1-cyclopropylethylamino)-7-(4-(3-oxomorpholino)phenyl)cinnoline-3-carboxamide] | 8.00 | – |
| C[C@@H](Nc1c(C(N)=O)nnc2cc(-c3ccccc3Cl)ccc12)C1CC1 [Compound 2-117, (R)-7-(2-chlorophenyl)-4-(1-cyclopropylethylamino)cinnoline-3-carboxamide] | 6.34 | – |
| COc1cc(C(=O)N(C)C)ccc1-c1ccc2c(N[C@H](C)C3CC3)c(C(N)=O)nnc2c1 [Compound 2-118, (R)-4-(1-cyclopropylethylamino)-7-(4-(dimethylcarbamoyl)-2-methoxyphenyl)cinnoline-3-carboxamide] | 8.00 | – |
| C[C@@H](Nc1c(C(N)=O)nnc2cc(-c3cccc4c3CC(=O)N4)ccc12)C1CC1 [Compound 2-119, (R)-4-(1-cyclopropylethylamino)-7-(2-oxoindolin-4-yl)cinnoline-3-carboxamide] | 7.74 | – |
| C[C@@H](Nc1c(C(N)=O)nnc2cc(-c3ccc4c(c3)NC(=O)C4)ccc12)C1CC1 [Compound 2-120, (R)-4-(1-cyclopropylethylamino)-7-(2-oxoindolin-6-yl)cinnoline-3-carboxamide] | 9.00 | – |
| C[C@@H](Nc1c(C(N)=O)nnc2cc(-c3cccc4c3NC(=O)C4)ccc12)C1CC1 [Compound 2-121, (R)-4-(1-cyclopropylethylamino)-7-(2-oxoindolin-7-yl)cinnoline-3-carboxamide] | 8.70 | – |
| C[C@@H](Nc1c(C(N)=O)nnc2cc(-c3ccn(C)c(=O)c3)ccc12)C1CC1 [Compound 2-122, (R)-4-(1-cyclopropylethylamino)-7-(1-methyl-2-oxo-1,2-dihydropyridin-4-yl)cinnoline-3-carboxamide] | 8.10 | – |
| C[C@@H](Nc1c(C(N)=O)nnc2cc(-c3ccccc3S(C)(=O)=O)ccc12)C1CC1 [Compound 2-123, (R)-4-(1-cyclopropylethylamino)-7-(2-(methylsulfonyl)phenyl)cinnoline-3-carboxamide] | 6.37 | – |
| CC(C)Nc1c(C(N)=O)nnc2ccc(-c3ccccc3)cc12 [Compound 2-124, 4-(isopropylamino)-6-phenylcinnoline-3-carboxamide] | 6.20 | – |
| CC(C)Nc1c(C(N)=O)nnc2ccc(-c3ccc(S(C)(=O)=O)cc3)cc12 [Compound 2-125, 4-(isopropylamino)-6-(4-(methylsulfonyl)phenyl)cinnoline-3-carboxamide] | 5.54 | – |
| CC(C)Nc1c(C(N)=O)nnc2ccc(-c3ccncc3)cc12 [Compound 2-126, 4-(isopropylamino)-6-(pyridin-4-yl)cinnoline-3-carboxamide] | 7.52 | – |
| CC(C)Nc1c(C(N)=O)nnc2ccc(-c3cn[nH]c3)cc12 [Compound 2-127, 4-(isopropylamino)-6-(1H-pyrazol-4-yl)cinnoline-3-carboxamide] | > 8.22 | – |
| CC(C)Nc1c(C#N)nnc2ccc(-c3cn[nH]c3)cc12 [Compound 2-128, 4-(isopropylamino)-6-(1H-pyrazol-4-yl)cinnoline-3-carbonitrile] | 6.92 | – |
| CC(C)Nc1c(C(N)=O)nnc2ccc(-c3cnn(C)c3)cc12 [Compound 2-129, 4-(isopropylamino)-6-(1-methyl-1H-pyrazol-4-yl)cinnoline-3-carboxamide] | 6.42 | – |
| CC(C)Nc1c(C(N)=O)nnc2ccc(-c3nccs3)cc12 [Compound 2-130, 4-(isopropylamino)-6-(thiazol-2-yl)cinnoline-3-carboxamide] | 6.24 | – |
| CC(C)Nc1c(C(N)=O)nnc2ccc(-c3cncs3)cc12 [Compound 2-131, 4-(isopropylamino)-6-(thiazol-5-yl)cinnoline-3-carboxamide] | 6.96 | – |
| CCC(CC)Nc1c(C(N)=O)nnc2cc(-c3ccncc3)ccc12 [Compound 2-134, 4-(pentan-3-ylamino)-7-(pyridin-4-yl)cinnoline-3-carboxamide] | 7.59 | – |
| NC(=O)c1nnc2cc(-c3ccncc3)ccc2c1NCCCO [Compound 2-136, 4-(3-hydroxypropylamino)-7-(pyridin-4-yl)cinnoline-3-carboxamide] | 6.92 | – |
| NC(=O)c1nnc2cc(-c3ccncc3)ccc2c1NCCO [Compound 2-137, 4-(2-hydroxyethylamino)-7-(pyridin-4-yl)cinnoline-3-carboxamide] | 6.82 | – |

Source: patent publication US9884828B2, “Substituted cinnolines as inhibitors of LRRK2 kinase activity” (Imago Pharmaceuticals, Inc., priority 2011, dated 2018)
